Data as given in ChEMBL document CHEMBL1201862, “PubChem BioAssay data set” (2004).
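How tested: cells in 96-well plates exposed to compound for 48 hours at five concentrations. GI50 is the concentration that inhibits growth by half.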 Active and inactive are the calls of the source. No stated cut-off is given here; in the data, active = GI50 up to about 1.1 µM and inactive = higher. Where a SMILES comes first, the peptide text is derived from it. [ ]: non-standard residue; d: D form. The star is where a group is joined. Octanoyl = CCCCCCCC(=O)*; Aib = CC(C)(N)C(=O)O; tBu = CC(C)(C)*

Legend:
Experiment in all cases: NCI anticancer screen, dose series, 48 h
ACHN = test system: ACHN
UACC-62 = test system: UACC-62
BT-549 = test system: BT-549
CAKI-1 = test system: CAKI-1
K562 = test system: K562
RXF 393 = test system: RXF 393
SK-MEL-2 = test system: SK-MEL-2
U-251 = test system: U-251
SF-295 = test system: SF-295
SK-OV-3 = test system: SK-OV-3
MDA-MB-435 = test system: MDA-MB-435
Hs-578T = test system: Hs-578T
HCC 2998 = test system: HCC 2998
MCF7 = test system: MCF7
OVCAR-8 = test system: OVCAR-8
HT-29 = test system: HT-29
UACC-257 = test system: UACC-257
A549 = test system: A549
DU-145 = test system: DU-145

Structure (SMILES)	GI50 (ACHN)	GI50 (UACC-62)	GI50 (BT-549)	GI50 (CAKI-1)	GI50 (K562)	GI50 (RXF 393)	GI50 (SK-MEL-2)	GI50 (U-251)	GI50 (SF-295)	GI50 (SK-OV-3)	GI50 (MDA-MB-435)	GI50 (Hs-578T)	GI50 (HCC 2998)	GI50 (MCF7)	GI50 (OVCAR-8)	GI50 (HT-29)	GI50 (UACC-257)	GI50 (A549)	GI50 (DU-145)
Cc1nc2c(=O)[nH]c3ccc(Cl)cc3c2o1	> 100 µM (inactive)	> 100 µM (inactive)	> 100 µM (inactive)	> 100 µM (inactive)	> 100 µM (inactive)	> 100 µM (inactive)	> 100 µM (inactive)	> 100 µM (inactive)	> 100 µM (inactive)	> 100 µM (inactive)	> 100 µM (inactive)	> 100 µM (inactive)	> 100 µM (inactive)	> 100 µM (inactive)	> 100 µM (inactive)	> 100 µM (inactive)	> 100 µM (inactive)	> 100 µM (inactive)	
C=C1C[C@@H](O)[C@@H](Br)C(C)(C)[C@@]12C=CC(O)(CBr)CC2 (stereo partly specified)	> 100 µM (inactive)	43.3 µM (inactive)	29.9 µM (inactive)	> 100 µM (inactive)	55.8 µM (inactive)	43.3 µM (inactive)	86.3 µM (inactive)	63.4 µM (inactive)	> 100 µM (inactive)		66.5 µM (inactive)	45.6 µM (inactive)		59.6 µM (inactive)	> 100 µM (inactive)	47.6 µM (inactive)	> 100 µM (inactive)	> 100 µM (inactive)	> 100 µM (inactive)
CC[C@@]1(O)C(=O)OCc2c1cc1n(c2=O)Cc2c-1nc1ccccc1c2/C=N\NC(=O)C(N)Cc1ccc(O)cc1 (stereo partly specified)	0.133 µM (active)	0.209 µM (active)	1.9 µM (inactive)	0.315 µM (active)	0.531 µM (active)			0.248 µM (active)	0.46 µM (active)	0.869 µM (active)	1.61 µM (inactive)	7.43 µM (inactive)	4.03 µM (inactive)	0.367 µM (active)	0.809 µM (active)	1.36 µM (inactive)	2.45 µM (inactive)	0.815 µM (active)	0.331 µM (active)
CCCCCCCC(=O)NC(C)(C)C(=O)NC(COC(C)(C)C)C(=O)NC(CC(C)C)C(=O)NC(C)(C)C(=O)NC(COC(C)(C)C)C(=O)NC(COC(C)(C)C)C(=O)NC(CC(C)C)C(=O)NC(C)(C)C(=O)NC(COC(C)(C)C)C(=O)NC(C(=O)NC(CC(C)C)C(=O)OC)C(C)CC (stereo unspecified) (Octanoyl-[Aib]S(tBu)L[Aib]S(tBu)S(tBu)L[Aib]S(tBu)IL-OMe; configuration not given here)	7.62 µM (inactive)	7.8 µM (inactive)	5.38 µM (inactive)	18.5 µM (inactive)	5.52 µM (inactive)	3.57 µM (inactive)	6.01 µM (inactive)	5.24 µM (inactive)	6.4 µM (inactive)	11.8 µM (inactive)	7.94 µM (inactive)	8.85 µM (inactive)		5.98 µM (inactive)	8.65 µM (inactive)	4.94 µM (inactive)	8.81 µM (inactive)	8.18 µM (inactive)	6.9 µM (inactive)
O=C1C=C2CC[C@H]3[C@@H]4CC[C@H](Oc5c6ccccc6nc6ccccc56)[C@H]4CC[C@@H]3[C@H]2CC1	48.4 µM (inactive)	16.7 µM (inactive)	20.3 µM (inactive)	36.7 µM (inactive)	32.7 µM (inactive)	26.2 µM (inactive)	40 µM (inactive)	41.9 µM (inactive)	52.4 µM (inactive)	60.8 µM (inactive)	32.7 µM (inactive)	26.8 µM (inactive)			22.9 µM (inactive)	36.7 µM (inactive)	35.6 µM (inactive)	54.1 µM (inactive)	87.7 µM (inactive)
CCOC(=O)Nc1nn(C)/c(=N/Cc2ccccc2)s1	> 100 µM (inactive)	> 100 µM (inactive)	85.1 µM (inactive)	> 100 µM (inactive)	> 100 µM (inactive)	> 100 µM (inactive)	> 100 µM (inactive)	> 100 µM (inactive)	> 100 µM (inactive)	> 100 µM (inactive)	> 100 µM (inactive)	> 100 µM (inactive)		> 100 µM (inactive)			> 100 µM (inactive)	> 100 µM (inactive)	> 100 µM (inactive)
CCCCCCCCCCCC1NC(N)=NC(CCCO)=C1C(=O)OC (stereo unspecified)	4.22 µM (inactive)	4.38 µM (inactive)	4.67 µM (inactive)	7.06 µM (inactive)	1.71 µM (inactive)		1.63 µM (inactive)	1.67 µM (inactive)	2.93 µM (inactive)	2.33 µM (inactive)	1.88 µM (inactive)	1.92 µM (inactive)	2.35 µM (inactive)	1.79 µM (inactive)	2.3 µM (inactive)	1.73 µM (inactive)	3.16 µM (inactive)	5.92 µM (inactive)	9.35 µM (inactive)
